Data: ChEMBL document CHEMBL3431459, “Roche carnitine palmitoyltransferase modulator screening data (supplementary data associated with the publication CHEMBL2216752)”
Values after ≈ are worked out from the molar mass of the structure shown.

Experiments:
[1] = target: T1, Carnitine O-palmitoyltransferase 1, muscle isoform (Homo sapiens, UniProt Q92523); assay: SUPPLEMENTARY: Inhibition of Carnitine palmitoyltransferase 1, muscle isoform; set-up: species or system Muscle tissue
T1 sequence (Q92523 whole entry): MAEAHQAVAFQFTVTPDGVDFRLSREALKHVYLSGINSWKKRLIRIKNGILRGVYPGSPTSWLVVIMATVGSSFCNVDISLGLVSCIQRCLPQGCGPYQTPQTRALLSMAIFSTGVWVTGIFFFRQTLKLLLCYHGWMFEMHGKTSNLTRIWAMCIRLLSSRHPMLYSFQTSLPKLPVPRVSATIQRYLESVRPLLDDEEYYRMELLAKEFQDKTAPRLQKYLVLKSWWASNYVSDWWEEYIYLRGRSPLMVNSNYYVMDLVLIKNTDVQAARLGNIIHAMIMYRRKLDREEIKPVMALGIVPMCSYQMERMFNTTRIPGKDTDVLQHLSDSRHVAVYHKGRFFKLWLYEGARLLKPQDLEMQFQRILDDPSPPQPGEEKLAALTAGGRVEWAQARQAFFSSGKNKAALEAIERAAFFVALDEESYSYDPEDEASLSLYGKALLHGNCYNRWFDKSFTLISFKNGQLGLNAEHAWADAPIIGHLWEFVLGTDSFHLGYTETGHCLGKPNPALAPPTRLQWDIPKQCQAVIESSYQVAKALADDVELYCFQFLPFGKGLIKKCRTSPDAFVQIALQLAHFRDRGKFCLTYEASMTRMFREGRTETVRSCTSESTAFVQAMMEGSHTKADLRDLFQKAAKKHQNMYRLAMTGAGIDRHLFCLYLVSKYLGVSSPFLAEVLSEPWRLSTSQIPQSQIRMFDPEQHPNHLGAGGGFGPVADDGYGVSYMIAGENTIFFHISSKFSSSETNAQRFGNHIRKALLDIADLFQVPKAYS

[2] = target: T2, Carnitine O-palmitoyltransferase 2, mitochondrial (Homo sapiens, UniProt P23786); assay: (§1) SUPPLEMENTARY: Inhibition of Carnitine palmitoyltransferase 2
T2 sequence (P23786 whole entry): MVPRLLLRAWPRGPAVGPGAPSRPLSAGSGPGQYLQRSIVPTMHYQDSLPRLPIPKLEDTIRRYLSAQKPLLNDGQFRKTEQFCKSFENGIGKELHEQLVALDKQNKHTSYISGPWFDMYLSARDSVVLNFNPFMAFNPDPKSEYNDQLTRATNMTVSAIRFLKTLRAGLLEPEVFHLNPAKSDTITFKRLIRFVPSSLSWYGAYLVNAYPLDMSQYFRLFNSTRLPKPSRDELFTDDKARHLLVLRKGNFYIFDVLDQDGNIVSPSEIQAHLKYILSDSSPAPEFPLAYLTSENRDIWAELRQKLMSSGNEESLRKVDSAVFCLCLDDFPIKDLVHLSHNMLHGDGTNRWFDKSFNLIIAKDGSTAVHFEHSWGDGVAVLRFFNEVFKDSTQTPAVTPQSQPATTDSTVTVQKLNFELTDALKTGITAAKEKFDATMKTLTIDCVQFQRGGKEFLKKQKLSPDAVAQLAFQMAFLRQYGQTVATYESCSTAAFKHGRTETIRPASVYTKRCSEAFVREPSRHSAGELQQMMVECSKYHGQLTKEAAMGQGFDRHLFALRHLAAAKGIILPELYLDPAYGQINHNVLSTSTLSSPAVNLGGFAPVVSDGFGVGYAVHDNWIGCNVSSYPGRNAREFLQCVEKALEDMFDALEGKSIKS

[3] = target: T3, Carnitine O-palmitoyltransferase 2, mitochondrial (Rattus norvegicus, UniProt P18886); assay: as §1
T3 sequence (P18886 whole entry): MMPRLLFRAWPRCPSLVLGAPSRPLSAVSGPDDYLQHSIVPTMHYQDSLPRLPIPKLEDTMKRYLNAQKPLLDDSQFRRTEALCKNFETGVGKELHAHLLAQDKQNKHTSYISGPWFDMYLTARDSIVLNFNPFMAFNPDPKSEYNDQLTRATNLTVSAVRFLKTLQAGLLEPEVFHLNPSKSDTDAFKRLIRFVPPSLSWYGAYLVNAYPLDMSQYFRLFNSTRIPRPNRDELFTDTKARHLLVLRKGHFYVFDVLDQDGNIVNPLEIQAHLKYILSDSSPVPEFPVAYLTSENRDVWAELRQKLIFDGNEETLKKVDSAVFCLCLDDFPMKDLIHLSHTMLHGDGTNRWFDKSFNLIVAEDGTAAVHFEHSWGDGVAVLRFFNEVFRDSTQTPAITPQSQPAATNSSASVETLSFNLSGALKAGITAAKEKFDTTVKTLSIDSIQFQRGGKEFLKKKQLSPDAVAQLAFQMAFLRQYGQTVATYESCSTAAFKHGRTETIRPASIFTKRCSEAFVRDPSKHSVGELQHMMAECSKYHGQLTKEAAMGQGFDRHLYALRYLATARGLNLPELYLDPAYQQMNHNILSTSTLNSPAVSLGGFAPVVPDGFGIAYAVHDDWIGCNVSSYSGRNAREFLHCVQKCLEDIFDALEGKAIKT

[4] = target: T4, Carnitine O-palmitoyltransferase 1, liver isoform (Homo sapiens, UniProt P50416); assay: (§2) SUPPLEMENTARY: Inhibition of Carnitine palmitoyltransferase 1, liver isoform
T4 sequence (P50416 whole entry): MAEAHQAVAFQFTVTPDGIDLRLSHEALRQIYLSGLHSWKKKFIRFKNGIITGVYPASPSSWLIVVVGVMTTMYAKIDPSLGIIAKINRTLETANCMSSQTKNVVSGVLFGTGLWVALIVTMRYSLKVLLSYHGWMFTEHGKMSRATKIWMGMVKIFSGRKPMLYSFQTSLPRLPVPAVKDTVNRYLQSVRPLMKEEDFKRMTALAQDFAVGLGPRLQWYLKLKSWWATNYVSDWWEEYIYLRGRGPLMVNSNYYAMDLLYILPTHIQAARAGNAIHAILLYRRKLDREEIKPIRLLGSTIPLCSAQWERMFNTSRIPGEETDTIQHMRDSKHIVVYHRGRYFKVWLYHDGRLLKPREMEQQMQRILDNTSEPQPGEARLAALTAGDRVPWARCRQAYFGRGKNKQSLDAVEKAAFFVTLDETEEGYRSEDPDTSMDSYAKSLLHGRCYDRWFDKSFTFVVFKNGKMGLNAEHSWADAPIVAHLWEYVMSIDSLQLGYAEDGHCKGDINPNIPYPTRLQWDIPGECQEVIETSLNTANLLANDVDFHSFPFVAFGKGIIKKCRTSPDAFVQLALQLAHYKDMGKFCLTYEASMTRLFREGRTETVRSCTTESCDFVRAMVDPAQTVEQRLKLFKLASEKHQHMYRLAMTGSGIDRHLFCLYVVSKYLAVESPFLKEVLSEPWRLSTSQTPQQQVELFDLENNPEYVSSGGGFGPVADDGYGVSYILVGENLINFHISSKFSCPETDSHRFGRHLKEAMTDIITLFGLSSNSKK

[5] = target: T5, Carnitine O-palmitoyltransferase 1, liver isoform (Rattus norvegicus, UniProt P32198); assay: as §2
T5 sequence (P32198 whole entry): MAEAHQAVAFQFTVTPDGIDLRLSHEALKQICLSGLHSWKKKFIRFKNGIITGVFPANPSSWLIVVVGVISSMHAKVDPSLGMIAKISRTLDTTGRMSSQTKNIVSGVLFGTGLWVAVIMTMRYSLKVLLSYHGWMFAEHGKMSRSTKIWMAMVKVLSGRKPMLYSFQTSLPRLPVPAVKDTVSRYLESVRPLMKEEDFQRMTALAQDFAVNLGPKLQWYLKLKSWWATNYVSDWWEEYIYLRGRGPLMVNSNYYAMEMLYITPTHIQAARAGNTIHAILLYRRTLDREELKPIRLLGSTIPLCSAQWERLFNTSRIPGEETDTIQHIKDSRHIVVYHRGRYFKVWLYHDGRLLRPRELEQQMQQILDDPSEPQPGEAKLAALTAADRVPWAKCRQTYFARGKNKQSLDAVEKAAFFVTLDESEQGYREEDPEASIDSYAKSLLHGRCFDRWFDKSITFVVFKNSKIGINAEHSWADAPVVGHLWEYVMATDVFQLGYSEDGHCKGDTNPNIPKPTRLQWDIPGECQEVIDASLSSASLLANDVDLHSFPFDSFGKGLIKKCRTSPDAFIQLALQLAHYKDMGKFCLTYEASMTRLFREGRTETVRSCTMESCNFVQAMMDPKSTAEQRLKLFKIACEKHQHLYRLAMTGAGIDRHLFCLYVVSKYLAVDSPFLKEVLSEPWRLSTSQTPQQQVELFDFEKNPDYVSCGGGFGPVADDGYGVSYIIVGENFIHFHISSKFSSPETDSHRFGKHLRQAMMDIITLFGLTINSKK

[6] = SUPPLEMENTARY: Lyophilisation Solubility Assay (LYSA); assay type: physicochemical; details: read-out: Kinetic_solubility
[7] = SUPPLEMENTARY: Lipophilicity (log D) Determination by high-throughput shake-flask; assay type: physicochemical; details: octanol/water
[8] = SUPPLEMENTARY: PAMPA permeability assay; assay type: physicochemical; details: read-out: Permeability

SMILES | IC50 [1] | IC50 [2] | IC50 [3] | IC50 [4] | IC50 [5] | solubility kinetic [6] | logD [7] | Papp [8]
CCCN(c1cc(C(=O)Nc2nc(CC(=O)O)cs2)cc2c1OCO2)S(=O)(=O)c1cc(Cl)ccc1OC | 0.622 µM | > 100 µM | > 100 µM | 0.124 µM | 0.131 µM | 108 µg/mL (≈ 190 µM) | 2.72 | 3.58 ×10⁻⁶ cm/s
CCC(=O)Nc1cccc(-c2n[nH]c([C@H]3CCCCN3C(=O)COc3ccccc3)n2)c1 | > 100 µM | 65.7 µM | 76.2 µM | 0.0356 µM | 0.33 µM | 56 µg/mL (≈ 129 µM) | 2.96 | 2.89 ×10⁻⁶ cm/s
COc1ccc(Cl)cc1S(=O)(=O)N1CCOc2ncc(C(=O)Nc3ccccc3)cc21 | > 100 µM | > 100 µM | > 100 µM | 0.27 µM | 0.237 µM | 4 µg/mL (≈ 8.7 µM) | 3.31 | 4.38 ×10⁻⁶ cm/s
COc1ccc(Cl)cc1S(=O)(=O)N1CCOc2ccc(C(=O)Nc3ccc(CC(=O)O)cc3)cc21 | 0.827 µM | > 100 µM | > 100 µM | 0.0968 µM | 0.0702 µM | 6 µg/mL (≈ 11.6 µM) | 0.11 | 1.86 ×10⁻⁶ cm/s
COc1ccc(C)cc1S(=O)(=O)N1CCCc2ccc(C(=O)Nc3nc(CC(=O)O)cs3)cc21 | 2.4 µM | > 100 µM | > 100 µM | 0.0546 µM | 0.0418 µM | 51 µg/mL (≈ 102 µM) | 3.19 | 1.69 ×10⁻⁶ cm/s
O=C(O)c1ccc(C(=O)Nc2nn(Cc3ccc(OC(F)F)cc3)c3ccc(F)cc23)cc1 | 0.628 µM | > 100 µM | > 100 µM | 0.156 µM | 0.514 µM | 70 µg/mL (≈ 154 µM) | 0.92 | 3.15 ×10⁻⁶ cm/s
NC(=O)COc1cccc(-c2noc([C@H]3CCCCN3C(=O)COc3ccccc3)n2)c1 | > 100 µM | 18.5 µM | > 100 µM | 0.0636 µM | 0.147 µM | 57 µg/mL (≈ 131 µM) | 2.51 | 2.49 ×10⁻⁶ cm/s
O=C(NCCO)c1cccc(-c2n[nH]c([C@H]3CCCCN3C(=O)COc3ccccc3)n2)c1 | > 100 µM | 30.3 µM | 70 µM | 0.242 µM | 0.713 µM | 138 µg/mL (≈ 307 µM) | 1.98 | 0.51 ×10⁻⁶ cm/s
O=C(COc1ccccc1)N1CCCC[C@@H]1c1noc(C2(C(F)(F)F)CC2)n1 | 29.7 µM | > 100 µM | > 100 µM | 0.0858 µM | 1.43 µM | < 1 µg/mL | 3.2 | 5.37 ×10⁻⁶ cm/s
CC(=O)Nc1cc(-c2n[nH]c([C@H]3CCCCN3C(=O)COc3ccccc3)n2)ccc1F | > 100 µM | 45.9 µM | > 100 µM | 0.0795 µM | 0.375 µM | 121 µg/mL (≈ 277 µM) | 2.43 | 2.67 ×10⁻⁶ cm/s
